Patent publication US10308645B2, “Piperidine oxadiazole and thiadiazole orexin receptor antagonists” (MERCK SHARP & DOHME CORP., priority 2014, dated 2019)

Tests used:
[1] = biological target: hOX1R (orexin-1 receptor) (Homo sapiens, UniProt O43613); experiment: FLIPR Ca2+ Flux Assay, hOX1R; type: cell-based; conditions: CHO cells expressing the receptor; agonist Ala-6,12 human orexin-A
human orexin-2 receptor = human orexin-2 receptor (Homo sapiens (Human), UniProt O43614); experiment: FLIPR Ca2+ Flux Assay, hOX2R; type: cell-based; conditions: CHO cells expressing the receptor; agonist Ala-6,12 human orexin-A
Experimental: The utility of the compounds in accordance with the present invention as orexin receptor OX1R and/or OX2R antagonists may be readily determined without undue experimentation by methodology well known in the art, including the “FLIPR Ca^2+ Flux Assay” (Okumura et al., Biochem. Biophys. Res. Comm. 280:976-981, 2001). In a typical experiment the OX1 and OX2 receptor antagonistic activity of the compounds of the present invention was determined in accordance with the following experimental method. For intracellular calcium measurements, Chinese hamster ovary (CHO) cells expressing the rat orexin-1 receptor or the human orexin-2 receptor, are grown in Iscove's modified DMEM containing 2 mM L-glutamine, […], 1% hypoxanthine-thymidine supplement, 100 U/ml penicillin, 100 μg/ml streptomycin and 10% heat-inactivated fetal calf serum (FCS). The cells are seeded at 20,000 cells/well into Becton-Dickinson black 384-well clear bottom sterile plates coated with poly-D-lysine. All reagents were from GIBCO-Invitrogen Corp. The seeded plates are incubated overnight at 37° C. and 5% CO2. Ala-6,12 human orexin-A as the agonist is prepared as a 1 mM stock solution in 1% bovine serum albumin (BSA) and diluted in assay buffer (HBSS containing 20 mM HEPES, 0.1% BSA and 2.5 mM probenecid, pH7.4) for use in the assay at a final concentration of 70 pM. Test compounds are prepared as 10 mM stock solution in DMSO, then diluted in 384-well plates, first in DMSO, then assay buffer. On the day of the assay, cells are washed 3 times with 100 μl assay buffer and then incubated for 60 min (37° C., 5% CO2) in 60 μl assay buffer containing 1 μM Fluo-4AM ester, 0.02% pluronic acid, and 1% BSA. The dye loading solution is then aspirated and cells are washed 3 times with 100 μl assay buffer. 30 μl of that same buffer is left in each well. Within the Fluorescent Imaging Plate Reader (FLIPR, Molecular Devices), test compounds are added to the plate in a volume of 25 μl, incubated for 5 min and finally 25 μl of agonist is added. Fluorescence is measured for each well at 1 second intervals for 5 minutes and the height of each fluorescence peak is compared to the height of the fluorescence peak induced by […] Ala-6,12 orexin-A with buffer in place of antagonist. For each antagonist, IC50 value (the concentration of compound needed to inhibit 50% of the agonist response) is determined. Alternatively, compound potency can be assessed by a radioligand binding assay (described in Bergman et. al. Bioorg. Med. Chem. Lett. 2008, 18, 1425-1430) in which the inhibition constant (Ki) is determined in membranes prepared from CHO cells expressing either the OX1 or OX2 receptor. The intrinsic orexin receptor antagonist activity of a compound which may be used in the present invention may be determined by these assays.

human orexin-2 receptor, sequence (O43614 whole entry): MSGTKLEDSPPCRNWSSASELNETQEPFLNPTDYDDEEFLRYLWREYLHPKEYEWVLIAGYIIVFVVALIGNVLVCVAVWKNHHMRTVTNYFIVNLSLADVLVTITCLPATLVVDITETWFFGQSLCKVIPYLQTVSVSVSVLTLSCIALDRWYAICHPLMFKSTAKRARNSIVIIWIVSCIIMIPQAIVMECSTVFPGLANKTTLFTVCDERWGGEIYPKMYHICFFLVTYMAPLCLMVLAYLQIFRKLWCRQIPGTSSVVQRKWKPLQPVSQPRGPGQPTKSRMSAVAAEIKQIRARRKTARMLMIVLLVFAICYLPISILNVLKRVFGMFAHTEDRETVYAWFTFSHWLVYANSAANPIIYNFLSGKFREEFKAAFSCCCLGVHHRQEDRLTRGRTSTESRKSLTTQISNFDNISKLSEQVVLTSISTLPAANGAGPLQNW

SMILES | IC50 [1] [nM] | IC50 (human orexin-2 receptor) [nM]
C[C@@H]1CC[C@@H](c2noc(C3CC3)n2)CN1C(=O)c1ccccc1-n1nccn1 [Example 1, (2R,5R)-5-(5-Cyclopropyl-1,2,4-oxadiazol-3-yl)-2-methyl-1-{[2-(2H-1,2,3-triazol-2-yl)phenyl]carbonyl}piperidine] | > 10000 | 329
C[C@@H]1CC[C@@H](c2noc(C(C)(C)C)n2)CN1C(=O)c1ccccc1-n1nccn1 [Example 2, (2R,5R)-5-(5-tert-butyl-1,2,4-oxadiazol-3-yl)-2-methyl-1-{[2-(2H-1,2,3-triazol-2-yl)phenyl]carbonyl}piperidine] | 516 | 29
CCc1nc([C@@H]2CC[C@@H](C)N(C(=O)c3ccccc3-n3nccn3)C2)no1 [Example 3, (2R,5R)-5-(5-ethyl-1,2,4-oxadiazol-3-yl)-2-methyl-1-{[2-(2H-1,2,3-triazol-2-yl)phenyl]carbonyl}piperidine] | > 10000 | 315
CC(C)c1nc([C@@H]2CC[C@@H](C)N(C(=O)c3ccccc3-n3nccn3)C2)no1 [Example 4, (2R,5R)-2-methyl-5-[5-(1-methylethyl)-1,2,4-oxadiazol-3-yl]-1-{[2-(2H-1,2,3-triazol-2-yl)phenyl]carbonyl}piperidine] | 699 | 28
C[C@@H]1CC[C@@H](c2noc(C(C)(C)O)n2)CN1C(=O)c1ccccc1-n1nccn1 [Example 5, 2-{3-[(3R,6R)-6-Methyl-1-{[2-(2H-1,2,3-triazol-2-yl)phenyl]carbonyl}piperidin-3-yl]-1,2,4-oxadiazol-5-yl}propan-2-ol] | 3180 | 19
C[C@@H]1CC[C@@H](c2noc([C@](C)(O)C(F)(F)F)n2)CN1C(=O)c1ccccc1-n1nccn1 [Example 6, (2S)-1,1,1-trifluoro-2-{3-[(3R,6R)-6-methyl-1-{[2-(2H-1,2,3-triazol-2-yl)phenyl]carbonyl}piperidin-3-yl]-1,2,4-oxadiazol-5-yl}propan-2-ol] | 288 | 18
C[C@@H]1CC[C@@H](c2noc([C@H](O)C(F)(F)F)n2)CN1C(=O)c1ccccc1-n1nccn1 [Example 7, (1S)-2,2,2-trifluoro-1-{3-[(3R,6R)-6-methyl-1-{[2-(2H-1,2,3-triazol-2-yl)phenyl]carbonyl}piperidin-3-yl]-1,2,4-oxadiazol-5-yl}ethanol] | 456 | 22
COC(C)(C)c1nc([C@@H]2CC[C@@H](C)N(C(=O)c3ccccc3-n3nccn3)C2)no1 [Example 8, (2R,5R)-5-[5-(1-Methoxy-1-methylethyl)-1,2,4-oxadiazol-3-yl]-2-methyl-1-{[2-(2H-1,2,3-triazol-2-yl)phenyl]carbonyl}piperidine] | 3700 | 98
C[C@@H]1CC[C@@H](c2noc([C@@H](O)C(F)(F)F)n2)CN1C(=O)c1ccccc1-n1nccn1 [Example 9, (1R)-2,2,2-Trifluoro-1-{3-[(3R,6R)-6-methyl-1-{[2-(2H-1,2,3-triazol-2-yl)phenyl]carbonyl}piperidin-3-yl]-1,2,4-oxadiazol-5-yl}ethanol] | 1010 | 77
C[C@@H]1CC[C@@H](c2noc([C@@](C)(O)C(F)(F)F)n2)CN1C(=O)c1ccccc1-n1nccn1 [Example 10, (2R)-1,1,1-Trifluoro-2-{3-[(3R,6R)-6-methyl-1-{[2-(2H-1,2,3-triazol-2-yl)phenyl]carbonyl}piperidin-3-yl]-1,2,4-oxadiazol-5-yl}propan-2-ol] | 2240 | 97
C[C@@H]1CC[C@@H](c2noc(C(C)(C)O)n2)CN1C(=O)c1ccccc1C1(C#N)CC1 [Example 11, 1-[2-({(2R,5R)-5-[5-(1-hydroxy-1-methylethyl)-1,2,4-oxadiazol-3-yl]-2-methylpiperidin-1-yl}carbonyl)phenyl]cyclopropanecarbonitrile] | 2290 | 22
C[C@@H]1CC[C@@H](c2noc(C(C)(C)O)n2)CN1C(=O)c1ccccc1-n1ncnn1 [Example 12, 2-{3-[(3R,6R)-6-methyl-1-{[2-(2H-tetrazol-2-yl)phenyl]carbonyl}piperidin-3-yl]-1,2,4-oxadiazol-5-yl}propan-2-ol] | > 10000 | 184
C[C@@H]1CC[C@@H](c2noc(C(C)(C)O)n2)CN1C(=O)c1ccsc1-n1nccn1 [Example 13, 2-{3-[(3R,6R)-6-methyl-1-{[2-(2H-1,2,3-triazol-2-yl)thiophen-3-yl]carbonyl}piperidin-3-yl]-1,2,4-oxadiazol-5-yl}propan-2-ol] | > 10000 | 39
C[C@@H]1CC[C@@H](c2noc(C(C)(C)O)n2)CN1C(=O)c1cscc1-n1nccn1 [Example 14, 2-{3-[(3R,6R)-6-methyl-1-{[4-(2H-1,2,3-triazol-2-yl)thiophen-3-yl]carbonyl}piperidin-3-yl]-1,2,4-oxadiazol-5-yl}propan-2-ol] | > 10000 | 48
C[C@@H]1CC[C@@H](c2noc(C(C)(C)O)n2)CN1C(=O)c1ccccc1OC(F)(F)F [Example 15, 2-{3-[(3R,6R)-6-methyl-1-{[2-(trifluoromethoxy)phenyl]carbonyl}piperidin-3-yl]-1,2,4-oxadiazol-5-yl}propan-2-ol] | > 10000 | 86
C[C@@H]1CC[C@@H](c2noc(C(C)(C)O)n2)CN1C(=O)c1cccnc1OCC(F)(F)F [Example 16, 2-{3-[(3R,6R)-6-methyl-1-{[2-(2,2,2-trifluoroethoxy)pyridin-3-yl]carbonyl}piperidin-3-yl]-1,2,4-oxadiazol-5-yl}propan-2-ol] | > 10000 | 87
CC(C)Oc1ncccc1C(=O)N1C[C@H](c2noc(C(C)(C)O)n2)CC[C@H]1C [Example 17, 2-{3-[(3R,6R)-6-methyl-1-{[2-(1-methylethoxy)pyridin-3-yl]carbonyl}piperidin-3-yl]-1,2,4-oxadiazol-5-yl}propan-2-ol] | > 10000 | 219
C[C@@H]1CC[C@@H](c2noc(C(C)(C)O)n2)CN1C(=O)c1ccccc1OC(F)F [Example 18, 2-{3-[(3R,6R)-1-{[2-(difluoromethoxy)phenyl]carbonyl}-6-methylpiperidin-3-yl]-1,2,4-oxadiazol-5-yl}propan-2-ol] | > 10000 | 140
CCOc1ccccc1C(=O)N1C[C@H](c2noc(C(C)(C)O)n2)CC[C@H]1C [Example 19, 2-(3-{(3R,6R)-1-[(2-ethoxyphenyl)carbonyl]-6-methylpiperidin-3-yl}-1,2,4-oxadiazol-5-yl)propan-2-ol] | > 10000 | 124
COC(=O)c1ccccc1C(=O)N1C[C@H](c2noc(C(C)(C)O)n2)CC[C@H]1C [Example 20, methyl 2-({(2R,5R)-5-[5-(1-hydroxy-1-methylethyl)-1,2,4-oxadiazol-3-yl]-2-methylpiperidin-1-yl}carbonyl)benzoate] | > 10000 | 97
C[C@@H]1CC[C@@H](c2nsc(C(C)(C)O)n2)CN1C(=O)c1cccnc1OCC(F)(F)F [Example 38, 2-{3-[(3R,6R)-6-methyl-1-{[2-(2,2,2-trifluoroethoxy)pyridin-3-yl]carbonyl}piperidin-3-yl]-1,2,4-thiadiazol-5-yl}propan-2-ol] |  | 124
